From paper PMC8073907, “Peptide targeting of lysophosphatidylinositol-sensing GPR55 for osteoclastogenesis tuning” (Cell Communication and Signaling : CCS, 2021)

Tests used:
[1] = test system: endogenous GPR55 in RAW264.7 cells; assay: Intracellular Ca2+ assay in siRNA-interfered RAW264.7 cells; assay type: cell-based, murine; conditions: si-NT cells, 72 h of interference; 10 µM 16:0 LPI, within the first minute
Protocol: (§1) For transient interference of Gpr55, RAW264.7 cells were plated at 6 × 10^5 cells/well in six-well plates in growth medium without antibiotics. Twenty-four hours later, the cells were transfected with 250 pmol/well non-targeting small-interfering (si)RNAs (si-NT; siGENOME siRNA Pool #2; D-001206-14; Dharmacon, Chicago, IL, USA) or Gpr55-specific siRNAs (si-GPR55; siGENOME mouse GPR55 SMART pool; M-043590-01; Dharmacon) using Lipofectamine LTX and Plus Reagent, according to the manufacturer instructions. Twenty-four hours later, the cells were plated for the different assays or for RNA extraction. The efficiency of interference was monitored by real-time PCR after 72 h of interference, using the primers listed in the Additional file 1: Table S1. β2-microglobulin was followed as a housekeeping gene.
After 48 h of siRNA treatments, the RAW264.7 cells were detached with 600 μM EDTA in PBS, and plated at a density of 8 × 10^4 cells/well in 96-well plates. […] All the subsequent incubation steps were performed at 37 °C within the Fluoroskan Ascent FL (Thermo Fisher Scientific, Waltham, MA USA) and the fluorescence recorded with an Ex 485/ Em 520 every 3 s. The baseline fluorescence was monitored for 5 min, then 50 μL assay buffer (0.01% faf-BSA, 20 mM HEPES in HBSS^++) was added without or with 10 μM 16:0 LPI, and fluorescence was recorded for a further 5 min. […]

RAW264.7 cells = assay: Filopodium formation / actin morphology in siRNA-interfered RAW264.7 cells (confocal microscopy); assay type: cell-based, murine; conditions: 10 µM soybean LPI
Protocol: as §1
Twenty-four hours after plating the RAW264.7 cells at a density of 1.2 × 10^6 cells/well in six-well plates, or 2.5 × 10^5 cells/well in 24-well plates on coverslips, the cells were serum deprived for 2 h and then stimulated while adhered, with LPI in the assay buffer (0.1% faf-BSA, 20 mM HEPES in HBSS^++). […] Finally, the fixed cells were stained with 33 nM Alexa546-labelled phalloidin for 1 h at room temperature, washed three times (10 min each) with cytoskeleton buffer, suspended in PBS with 3% BSA, and analysed by FACS (FACSCalibur or FACSAria III; Becton Dickinson, Franklin Lakes, NJ). […]

In the case of lysophosphatidylinositol [LPI], the “mean increase of intracellular Ca2+ over basal levels” value [1] is reported as ~ 40 nM, the “actin cytoskeleton reorganisation, si-GPR55” value (RAW264.7 cells; si-GPR55 cells) is reported as “no significant signs of actin cytoskeleton reorganisation” and the “numbers of filopodia, si-NT” value (RAW264.7 cells; si-NT cells) is reported as “time-dependent increase in the numbers of filopodia”.
